Assay in all cases: IC50 determination, spectrophotometric protease assay
Type in all cases: biochemical

Test [1] addresses T1, β-tryptase (recombinant tryptase β-2) (Homo sapiens, UniProt P20231).
T1 construct: purchased EnzoLife Sciences
The procedure:
(§1) The IC50 values were determined using a spectrophotometric assay. All the experiments were conducted in duplicate. The readout consisted of evaluating the protease-mediated release of the chromophore para-nitroaniline (pNA) or fluorophore 7-amino-4-methyl coumarin (AMC) moieties from the respective substrates. Enzymatic activity was measured for 30 min at 37°C. All compounds were initially screened at three concentrations (10, 1, and .1 μM) to estimate the range of the IC50 value. Those which were able to reduce protease activity by at least 50% at a concentration of 10 μM were submitted to an exact IC50 determination. […] A third independent experiment was performed when the standard deviation of the two independent experiments was higher than […]. IC50 values were obtained by fitting the data with the four-parameter logistics equation using GraphPad Prism 9.
(§2) The conditions for each protease are described as follows, the concentration of substrate used was at the corresponding Km.

Test [2] addresses T2, uPA (recombinant urokinase plasminogen activator) (Homo sapiens, UniProt P00749).
T2 construct: purchased HYPHEN BioMed
As for the experimental part: as §1, §2

The target in test [3] is T3, TLCK-treated pancreatic bovine chymotrypsin (Bos taurus, UniProt P00766).
T3 construct: TLCK-treated pancreatic bovine chymotrypsin (Sigma-Aldrich); purchased Sigma-Aldrich; host or cells: bovine pancreas
As for the experimental part:
as §1, §2

Test [4] addresses T4, Trypsin-3 (recombinant trypsin-3) (Homo sapiens, UniProt P35030).
T4 construct: purchased R&D
T4 sequence (P35030 1-304): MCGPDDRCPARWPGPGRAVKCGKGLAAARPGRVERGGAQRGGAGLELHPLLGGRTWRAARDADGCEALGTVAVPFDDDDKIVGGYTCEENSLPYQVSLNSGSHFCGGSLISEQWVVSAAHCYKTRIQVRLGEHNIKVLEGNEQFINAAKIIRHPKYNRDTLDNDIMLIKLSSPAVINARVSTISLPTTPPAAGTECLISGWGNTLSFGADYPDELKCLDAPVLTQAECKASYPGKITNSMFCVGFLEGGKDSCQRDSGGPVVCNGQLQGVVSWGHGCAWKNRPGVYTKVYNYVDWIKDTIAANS
The conditions noted are these: for Trypsin-3 IC50: alkyne probes. The procedure:
as §1, §2

Test [5] has as its target T5, Neutrophil Elastase (recombinant neutrophil elastase) (Homo sapiens, UniProt P08246).
T5 construct: purchased Enzo LifeSciences
T5 sequence (P08246 30-267): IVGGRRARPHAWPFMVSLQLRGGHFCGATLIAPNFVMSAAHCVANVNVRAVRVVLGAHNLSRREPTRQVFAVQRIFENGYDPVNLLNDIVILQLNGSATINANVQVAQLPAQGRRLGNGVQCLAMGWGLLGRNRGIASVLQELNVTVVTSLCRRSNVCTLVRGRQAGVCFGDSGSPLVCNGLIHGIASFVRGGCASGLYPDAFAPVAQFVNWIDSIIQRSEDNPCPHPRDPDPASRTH
As for the experimental part: as §1, §2

The target of test [6] is T6, Cathepsin G (cathepsin G human neutrophil) (Homo sapiens, UniProt P08311).
T6 construct: Cathepsin G (cathepsin G human neutrophil, Sigma-Aldrich); purchased Sigma-Aldrich; host or cells: human neutrophil
T6 sequence (P08311 21-255): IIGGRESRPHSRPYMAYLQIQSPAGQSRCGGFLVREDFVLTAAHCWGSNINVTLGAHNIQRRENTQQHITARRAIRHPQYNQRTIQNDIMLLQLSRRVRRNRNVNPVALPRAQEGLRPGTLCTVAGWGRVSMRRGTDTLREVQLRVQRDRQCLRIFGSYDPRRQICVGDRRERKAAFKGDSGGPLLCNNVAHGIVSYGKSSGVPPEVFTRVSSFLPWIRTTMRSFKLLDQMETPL
The procedure:
as §1, §2

Test [7] addresses T7, Thrombin (recombinant thrombin) (Homo sapiens, UniProt P00734).
T7 construct: purchased R&D
The procedure:
as §1, §2

Where [8] appears, read: 15 min preincubation at 37°C, mean ± SD.
The mark [9] stands for this setting: read-out: β-tryptase IC50, desthiobiotin probes, 15 min preincubation at 37°C, mean ± SD.
The mark [10] stands for this setting: read-out: uPA IC50, desthiobiotin probes, 15 min preincubation at 37°C, mean ± SD.
Setting [11] is: read-out: ChTryp IC50, desthiobiotin probes, 15 min preincubation at 37°C, mean ± SD.
Setting [12] is: read-out: Trypsin-3 IC50, desthiobiotin probes, 15 min preincubation at 37°C, mean ± SD.
Where [13] appears, read: read-out: NE IC50, desthiobiotin probes, 15 min preincubation at 37°C, mean ± SD.
The mark [14] stands for this setting: read-out: CatG IC50, desthiobiotin probes, 15 min preincubation at 37°C, mean ± SD.
Where [15] appears, read: read-out: Thrombin IC50, desthiobiotin probes, 15 min preincubation at 37°C, mean ± SD.
The mark [16] stands for this setting: alkyne probes, 15 min preincubation at 37°C, mean ± SD.

Where a name gives a salt, the structure may show the parent alone. Read-outs that look alike come from different tables or passages of the source.

What is called IC50 is the midpoint of a concentration-inhibition curve.

T1 sequence (P20231 31-275): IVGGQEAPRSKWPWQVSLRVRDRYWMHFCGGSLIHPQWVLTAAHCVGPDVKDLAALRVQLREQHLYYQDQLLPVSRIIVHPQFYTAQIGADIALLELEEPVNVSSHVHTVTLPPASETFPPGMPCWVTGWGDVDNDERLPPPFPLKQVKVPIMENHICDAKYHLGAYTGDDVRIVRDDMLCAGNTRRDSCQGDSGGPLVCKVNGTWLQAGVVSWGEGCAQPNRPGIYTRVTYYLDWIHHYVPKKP

Regarding `C#CCCCOC(=O)NC(CCCCN)P(=O)(Oc1ccccc1)Oc1ccccc1.O=C(O)C(F)(F)F` (stereo not shown) [29b], the IC50 was 3.96 ± 0.5 µM in test [1]; 5.27 ± 0.15 µM in test [2]; 5.87 ± 3.39 µM in test [3]; 0.07 ± 0.02 µM in test [4]; more than 10 µM in test [5]; more than 10 µM in test [6]. Moreover, the IC50 in test [7] was 7.36 ± 0.25 µM. Also, in test [4] (setting [8]), the “Trypsin-3 IC50” value is reported as “nanomolar inhibition”.

Regarding `C#CCCCOC(=O)NC(Cc1ccc(CNC(=N)N)cc1)P(=O)(Oc1ccccc1)Oc1ccccc1` (stereo not shown) [40b], the IC50 is more than 10 µM in test [1]; more than 10 µM in test [2]; more than 10 µM in test [3]; more than 10 µM in test [4]; more than 10 µM in test [5]; 6.16 ± 0.48 µM in test [6]. In addition, the IC50 in test [7] was more than 10 µM.

As to `C#CCCCOC(=O)NC(c1ccc(N)cc1)P(=O)(Oc1ccc(Cl)cc1)Oc1ccc(Cl)cc1` (stereo not shown) [21b], the IC50 in test [1], in test [2] and in test [6] was more than 10 µM in each case.

Regarding `CC(=O)Nc1ccc(OP(=O)(Oc2ccc(NC(C)=O)cc2)C(CCCCN)NC(=O)OCCCc2cn(CCOCCOCCOCCNC(=O)CCCCC[C@H]3NC(=O)N[C@H]3C)nn2)cc1` (stereo partly drawn) [49b, 3-(1-(18-((4R,5S)-5-methyl-2-oxoimidazolidin-4-yl)-13-oxo-3,6,9-trioxa-12-azaoctadecyl)-1H-1,2,3-triazol-4-yl)propyl (5-amino-1-(bis(4-acetamidophenoxy)phosphoryl)pentyl)carbamate trifluoroacetate salt], the IC50 in test [1] (setting [9]) was 1.11 ± 0.05 µM; in test [2] (setting [10]), 6.75 ± 0.52 µM; in test [3] (setting [11]) it was more than 10 µM; in test [4] (setting [12]) it was 0.09 ± 0.005 µM; in test [5] (setting [13]), more than 10 µM; in test [6] (setting [14]), 4.47 ± 0.51 µM. The IC50 in test [7] (setting [15]) was 1.18 ± 0.04 µM.

In the case of `C#CCCCOC(=O)NC(Cc1ccc(N)cc1)P(=O)(Oc1ccc(Cl)cc1)Oc1ccc(Cl)cc1` (stereo not shown) [18b], the IC50 is more than 10 µM in test [1]; 6.38 ± 0.52 µM in test [2]; 0.19 ± 0.14 µM in test [3]; 1.72 ± 0.19 µM in test [4]; more than 10 µM in test [5]; 0.36 ± 0.01 µM in test [6]. Also, the IC50 in test [7] was 7.88 ± 0.61 µM. The “ChTryp IC50” value in test [3] (setting [16]) was “submicromolar”. The “CatG IC50” value in test [6] (setting [16]) is “submicromolar”.

Turning to `CC(C)C(NC(=O)OCCCc1cn(CCOCCOCCOCCNC(=O)CCCCC[C@H]2NC(=O)N[C@H]2C)nn1)P(=O)(Oc1ccccc1)Oc1ccccc1` (stereo partly shown) [compound 44], the IC50 was more than 10 µM in test [1]; more than 10 µM in test [2]; more than 10 µM in test [3]; more than 10 µM in test [4]; 4.7 ± 0.2 µM in test [5]; more than 10 µM in test [6]. The IC50 in test [7] was more than 10 µM.

As for `C#CCCCOC(=O)NC(C1CCNCC1)P(=O)(Oc1ccccc1)Oc1ccccc1` (stereo not shown) [23b], the IC50 in test [1], in test [2], in test [3], in test [4], in test [5] and in test [6] was more than 10 µM throughout. The IC50 in test [7] is more than 10 µM.

With `C#CCCCOC(=O)NC(Cc1ccc(N)cc1)P(=O)(Oc1ccccc1)Oc1ccccc1` (stereo not shown) [16b], the IC50 is more than 10 µM in test [1]; more than 10 µM in test [2]; 2.67 ± 0.57 µM in test [3]; 6.85 ± 0.8 µM in test [4]; more than 10 µM in test [5]; 3.74 ± 0.27 µM in test [6]. Further, the IC50 in test [7] was more than 10 µM.

On to `C#CCCCOC(=O)NC(c1ccc(N)cc1)P(=O)(Oc1ccc(NC(C)=O)cc1)Oc1ccc(NC(C)=O)cc1` (stereo not shown) [20b], for which the IC50 in test [1], in test [2] and in test [6] was more than 10 µM each time.

For `C#CCCCOC(=O)NC(CCCCN)P(=O)(Oc1ccc(NC(=O)OC)cc1)Oc1ccc(NC(=O)OC)cc1` (stereo not shown) [30b], the IC50 is 0.68 ± 0.05 µM in test [1]; 2.44 ± 0.35 µM in test [2]; more than 10 µM in test [3]; 0.006 ± 0.0006 µM in test [4]; more than 10 µM in test [5]; 0.56 ± 0.002 µM in test [6]. Further, the IC50 in test [7] worked out at 1.18 ± 0.07 µM. For the same compound, the “Trypsin-3 IC50” value in test [4] (setting [8]) is reported as “nanomolar inhibition”.

Regarding `C[C@@H]1NC(=O)N[C@@H]1CCCCCC(=O)NCCOCCOCCOCCn1cc(CCCOC(=O)NC(CCCCN)P(=O)(Oc2ccccc2)Oc2ccccc2)nn1` (stereo partly shown) [47b], the IC50 was 2.49 ± 0.19 µM in test [1] (setting [9]); 4.62 ± 0.17 µM in test [2] (setting [10]); more than 10 µM in test [3] (setting [11]); 0.52 ± 0.24 µM in test [4] (setting [12]); more than 10 µM in test [5] (setting [13]); more than 10 µM in test [6] (setting [14]). Further, the IC50 in test [7] (setting [15]) worked out at 3.55 ± 0.17 µM.

For `C[C@@H]1NC(=O)N[C@@H]1CCCCCC(=O)NCCOCCOCCOCCn1cc(CCCOC(=O)NC(Cc2ccccc2)P(=O)(Oc2ccccc2)Oc2ccccc2)nn1` (stereo partly shown) [compound 42], the IC50 in test [1] is more than 10 µM; in test [2] it was more than 10 µM; in test [3], 2.07 ± 0.85 µM; in test [4], more than 10 µM; in test [5] it was more than 10 µM; in test [6], 3.23 ± 0.29 µM. For the same compound, in test [7], the IC50 was more than 10 µM.

As to `C#CCCCOC(=O)NC(c1ccc(N)cc1)P(=O)(Oc1ccccc1)Oc1ccccc1` (stereo not shown) [19b], the IC50 was more than 10 µM in test [1]; more than 10 µM in test [2]; 8.52 ± 1.81 µM in test [3]; 9.06 ± 1.1 µM in test [4]; more than 10 µM in test [5]; more than 10 µM in test [6]. For the same compound, the IC50 in test [7] worked out at 6.59 ± 3.9 µM.

As for `C#CCCCOC(=O)NC(C(C)C)P(=O)(Oc1ccccc1)Oc1ccccc1` (stereo not shown) [compound 13], the IC50 in test [1], in test [2], in test [3], in test [4], in test [5] and in test [6] was more than 10 µM each time. In addition, the IC50 in test [7] is more than 10 µM. In addition, the “NE IC50” value in test [5] (setting [16]) is reported as “not potent”.

With `O=C(CCCCC1SCC2NC(=O)NC21)NCCOCCOCCOCCn1cc(CCCOC(=O)NC(Cc2ccccc2)P(=O)(Oc2ccccc2)Oc2ccccc2)nn1` (stereo not shown) [compound 43], the IC50 is more than 10 µM in test [1] (read-out: β-tryptase IC50, biotin probes, 15 min preincubation at 37 °C, mean ± SD); more than 10 µM in test [2] (read-out: uPA IC50, biotin probes, 15 min preincubation at 37 °C, mean ± SD); 2.64 µM in test [3] (read-out: ChTryp IC50, biotin probes, 15 min preincubation at 37 °C, mean ± SD); more than 10 µM in test [4] (read-out: Trypsin-3 IC50, biotin probes, 15 min preincubation at 37 °C, mean ± SD); more than 10 µM in test [5] (read-out: NE IC50, biotin probes, 15 min preincubation at 37 °C, mean ± SD); 2.77 µM in test [6] (read-out: CatG IC50, biotin probes, 15 min preincubation at 37 °C, mean ± SD). Further, in test [7] (read-out: Thrombin IC50, biotin probes, 15 min preincubation at 37 °C, mean ± SD), the IC50 is more than 10 µM.

As to `C#CCCCOC(=O)NC(Cc1ccc(CN)cc1)P(=O)(Oc1ccccc1)Oc1ccccc1` (stereo not shown) [22b], the concentration for half-maximal inhibition (IC50) was more than 10 µM in test [1]; 2.3 ± 0.1 µM in test [2]; more than 10 µM in test [3]; 3.82 ± 0.19 µM in test [4]; more than 10 µM in test [5]; 5.26 ± 0.68 µM in test [6]. Further, the IC50 in test [7] is more than 10 µM.

Values taken from publication PMC9849758, “Chemically diverse activity-based probes with unexpected inhibitory mechanisms targeting trypsin-like serine proteases” (Frontiers in Chemistry, 2023).
